Columns and labels:
[1] = test system: redroot pigweed; experiment: Test Example 5: herbicidal effect by foliage application, plastic box (Table 20, symbol N); assay type: in vivo, redroot pigweed (Amaranthus retroflexus); conditions: 320 g/ha
Description: (§1) [Test Example 5] Herbicidal Effect Test by Foliage Application
(§2) Sterilized diluvial soil was placed in a plastic box having a length of 21 cm, a width of 13 cm, and a depth of 7 cm. The seeds of each of southern crabgrass, green foxtail, barnyard grass, wild oat, blackgrass, Italian ryegrass, windgrass, velvetleaf, redroot pigweed, lambsquarters, chickweed, false cleavers, persian speedwell, corn, soybean, rice, wheat, beet, and rapeseed were sowed in a spot-like manner and covered with the soil having a thickness of about 1.5 cm. Thereafter, the plants were grown in a greenhouse at 25° C. to 30° C. After 14-day growth of the plants, the emulsion agent of the compound of the present invention prepared according to Formulation Example 2 was diluted with water so as to achieve a predetermined herbicide amount, and the diluted emulsion agent was uniformly applied to a foliage part with a small-sized spray. Three weeks after the herbicide application, the effect of the herbicide on each plant was evaluated according to the criteria of Test Example 1.

[2] = test system: Chinese sprangletop; experiment: Test Example 3: herbicidal effect by foliage application, Wagner pot (Table 18, symbol D); assay type: in vivo, chinese sprangletop (Leptochloa chinensis); conditions: amount of applied herbicide 320 g/ha
Method: [Test Example 3] Herbicidal Effect Test by Foliage Application After alluvial soil was placed into 1/10000 are of Wagner pot, water was poured and mixed to form a submerged condition having a water depth of 0.1 cm to 0.5 cm. Seeds of barnyard grass, Chinese sprangletop, rice flat sedge, and rice were sowed and the pot was placed in a greenhouse at 25° C. to 30° C. for growth of the plants. After 14-day growth of the plants, the emulsion agent of the compound of the present invention prepared according to Formulation Example 2 was diluted with water so as to achieve a predetermined herbicide amount, and the diluted emulsion agent was uniformly applied to a foliage part with a small-sized spray. Three weeks after the herbicide application, the effect of the herbicide on each plant was evaluated according to the criteria of Test Example 1.

[3] = test system: lambsquarters; experiment: Test Example 5: herbicidal effect by foliage application, plastic box (Table 20, symbol O); assay type: in vivo, lambsquarters (Chenopodium album); conditions: 320 g/ha
Description: as §1, §2

[4] = test system: rice flat sedge; experiment: Test Example 3: herbicidal effect by foliage application, Wagner pot (Table 18, symbol E); assay type: in vivo, rice flat sedge (Cyperus iria); conditions: amount of applied herbicide 320 g/ha
Summary of the method: (§3)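 Plants were sown in alluvial soil held under 0.1–0.5 cm standing water and grown 14 days in a greenhouse at 25–30 °C. An emulsifiable formulation, water-diluted to the set dose, was then sprayed onto the foliage, and effects were scored three weeks later using previously defined criteria.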

[5] = test system: lambsquarters; experiment: Test Example 4: herbicidal effect by soil treatment (Table 19, symbol O); assay type: in vivo, lambsquarters (Chenopodium album); conditions: amount of applied herbicide 320 g/ha
Description: (§4) [Test Example 4] Herbicidal Effect Test by Soil Treatment
as §2, with “Subsequently,” for “Thereafter, the plants were grown in a greenhouse at 25° C. to 30° C. After 14-day growth of the plants,”, “the surface of the soil” for “a foliage part”, “spray. The plastic box was placed in a greenhouse at 25° C. to 30° C. for growth of the plants.” for “spray.”

[6] = test system: redroot pigweed; experiment: Test Example 4: herbicidal effect by soil treatment (Table 19, symbol N); assay type: in vivo, redroot pigweed (Amaranthus retroflexus); conditions: amount of applied herbicide 320 g/ha
Description: as §4
as §2, with “Subsequently,” for “Thereafter, the plants were grown in a greenhouse at 25° C. to 30° C. After 14-day growth of the plants,”, “the surface of the soil” for “a foliage part”, “spray. The plastic box was placed in a greenhouse at 25° C. to 30° C. for growth of the plants.” for “spray.”

[7] = test system: barnyard grass; experiment: Test Example 3: herbicidal effect by foliage application, Wagner pot (Table 18, symbol H); assay type: in vivo, barnyard grass (Echinochloa crus-galli); conditions: amount of applied herbicide 320 g/ha
Summary of the method: as §3

[8] = test system: green foxtail; experiment: Test Example 5: herbicidal effect by foliage application, plastic box (Table 20, symbol G); assay type: in vivo, green foxtail (Setaria viridis); conditions: 320 g/ha
Summary of the method: (§5)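 Foliar spray test: emulsion formulation diluted in water to a set application rate, sprayed onto 14-day-old plants raised in diluvial soil at 25° C to 30° C under glass. Both herbicidal effect and crop effect rated visually three weeks later.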

[9] = test system: velvetleaf; experiment: Test Example 5: herbicidal effect by foliage application, plastic box (Table 20, symbol M); assay type: in vivo, velvetleaf (Abutilon theophrasti); conditions: 320 g/ha
Description: as §1, §2

[10] = test system: velvetleaf; experiment: Test Example 4: herbicidal effect by soil treatment (Table 19, symbol M); assay type: in vivo, velvetleaf (Abutilon theophrasti); conditions: amount of applied herbicide 320 g/ha
Description: as §4
as §2, with “Subsequently,” for “Thereafter, the plants were grown in a greenhouse at 25° C. to 30° C. After 14-day growth of the plants,”, “the surface of the soil” for “a foliage part”, “spray. The plastic box was placed in a greenhouse at 25° C. to 30° C. for growth of the plants.” for “spray.”

[11] = test system: green foxtail; experiment: Test Example 4: herbicidal effect by soil treatment (Table 19, symbol G); assay type: in vivo, green foxtail (Setaria viridis); conditions: amount of applied herbicide 320 g/ha
Description: as §4
as §2, with “Subsequently,” for “Thereafter, the plants were grown in a greenhouse at 25° C. to 30° C. After 14-day growth of the plants,”, “the surface of the soil” for “a foliage part”, “spray. The plastic box was placed in a greenhouse at 25° C. to 30° C. for growth of the plants.” for “spray.”

[12] = test system: barnyard grass; experiment: Test Example 4: herbicidal effect by soil treatment (Table 19, symbol H); assay type: in vivo, barnyard grass (Echinochloa crus-galli); conditions: amount of applied herbicide 320 g/ha
Description: as §4
as §2, with “Subsequently,” for “Thereafter, the plants were grown in a greenhouse at 25° C. to 30° C. After 14-day growth of the plants,”, “the surface of the soil” for “a foliage part”, “spray. The plastic box was placed in a greenhouse at 25° C. to 30° C. for growth of the plants.” for “spray.”

[13] = test system: barnyard grass; experiment: Test Example 5: herbicidal effect by foliage application, plastic box (Table 20, symbol H); assay type: in vivo, barnyard grass (Echinochloa crus-galli); conditions: 320 g/ha
Description: as §1, §2

[14] = test system: southern crabgrass; experiment: Test Example 5: herbicidal effect by foliage application, plastic box (Table 20, symbol F); assay type: in vivo, southern crabgrass (Digitaria ciliaris); conditions: 320 g/ha
Summary of the method: as §5

[15] = test system: southern crabgrass; experiment: Test Example 4: herbicidal effect by soil treatment (Table 19, symbol F); assay type: in vivo, southern crabgrass (Digitaria ciliaris); conditions: amount of applied herbicide 320 g/ha
Description: as §4
as §2, with “Subsequently,” for “Thereafter, the plants were grown in a greenhouse at 25° C. to 30° C. After 14-day growth of the plants,”, “the surface of the soil” for “a foliage part”, “spray. The plastic box was placed in a greenhouse at 25° C. to 30° C. for growth of the plants.” for “spray.”

[16] = foliage application, three weeks after application
[17] = foliage application after 14-day growth, evaluated three weeks after application

For `COCCOc1ccc(-c2sc3ccc(F)cc3c2-c2c(O)c(N)nn(C)c2=O)cc1` [2-456], the “N: redroot pigweed, herbicidal effect grade” value [1, 16] was 4 (Herbicidal rate of 70% or more and less than 90%), the “herbicidal effect on D: Chinese sprangletop” value [2] was 0 (Herbicidal rate of 5% or less (almost no effect)) and the “O: lambsquarters, herbicidal effect grade” value [3, 16] was 3 (Herbicidal rate of 40% or more and less than 70%). The “herbicidal effect on E: rice flat sedge” value [4] was 0 (Herbicidal rate of 5% or less (almost no effect)), the “herbicidal effect, O: lambsquarters” value [5] was 3 (Herbicidal rate of 40% or more and less than 70%) and the “herbicidal effect, N: redroot pigweed” value [6] was 5 (Herbicidal rate of 90% or more (almost completely withered)). The “herbicidal effect on H: barnyard grass” value [7] was 3 (Herbicidal rate of 40% or more and less than 70%), the “G: green foxtail, herbicidal effect grade” value [8, 16] was 1 (Herbicidal rate of 5% or more and less than 20%) and the “M: velvetleaf, herbicidal effect grade” value [9, 16] was 3 (Herbicidal rate of 40% or more and less than 70%). For the same compound, the “herbicidal effect, M: velvetleaf” value [10] was 0 (Herbicidal rate of 5% or less (almost no effect)), the “herbicidal effect, G: green foxtail” value [11] was 0 (Herbicidal rate of 5% or less (almost no effect)) and the “herbicidal effect, H: barnyard grass” value [12] was 0 (Herbicidal rate of 5% or less (almost no effect)). For the same compound, the “H: barnyard grass, herbicidal effect grade” value [13, 16] was 2 (Herbicidal rate of 20% or more and less than 40%), the “F: southern crabgrass, herbicidal effect grade” value [14, 16] was 0 (Herbicidal rate of 5% or less (almost no effect)) and the “herbicidal effect, F: southern crabgrass” value [15] was 0 (Herbicidal rate of 5% or less (almost no effect)).

In the case of `Cc1ccc2c(-c3c(O)c(C)nn(C)c3=O)c(-c3ccc(OC(F)(F)F)cc3)sc2c1` [3-168], the “herbicidal effect on N: redroot pigweed (evaluation grade 0-5)” value [1, 17] is reported as 2 (Herbicidal rate of 20% or more and less than 40%), the “herbicidal effect on O: lambsquarters (evaluation grade 0-5)” value [3, 17] is reported as 3 (Herbicidal rate of 40% or more and less than 70%) and the “Herbicidal effect by soil treatment, O: lambsquarters” value [5] is reported as 0 (Herbicidal rate of 5% or less (almost no effect)). The “Herbicidal effect by soil treatment, N: redroot pigweed” value [6] was 3 (Herbicidal rate of 40% or more and less than 70%), the “herbicidal effect on G: green foxtail (evaluation grade 0-5)” value [8, 17] was 0 (Herbicidal rate of 5% or less (almost no effect)) and the “herbicidal effect on M: velvetleaf (evaluation grade 0-5)” value [9, 17] was 0 (Herbicidal rate of 5% or less (almost no effect)). The “Herbicidal effect by soil treatment, M: velvetleaf” value [10] was 0 (Herbicidal rate of 5% or less (almost no effect)), the “Herbicidal effect by soil treatment, G: green foxtail” value [11] was 0 (Herbicidal rate of 5% or less (almost no effect)) and the “Herbicidal effect by soil treatment, H: barnyard grass” value [12] was 0 (Herbicidal rate of 5% or less (almost no effect)). The “herbicidal effect on H: barnyard grass (evaluation grade 0-5)” value [13, 17] was 0 (Herbicidal rate of 5% or less (almost no effect)), the “herbicidal effect on F: southern crabgrass (evaluation grade 0-5)” value [14, 17] was 0 (Herbicidal rate of 5% or less (almost no effect)) and the “Herbicidal effect by soil treatment, F: southern crabgrass” value [15] was 0 (Herbicidal rate of 5% or less (almost no effect)).

— US20230085307A1, “PYRIDAZINONE COMPOUND AND HERBICIDE” (NISSAN CHEMICAL CORPORATION, priority 2019, published 2023)
